From US20220226270A1, “VERY-LONG-CHAIN POLYUNSATURATED FATTY ACIDS, ELOVANOID HYDROXYLATED DERIVATIVES, AND METHODS OF USE” (Board of Supervisors of Louisiana State University and …, priority 2019, published 2022)

Tests used:
[1] = tested on: cerebral cortical mixed neuronal cells; assay: Uncompensated oxidative stress (TNFα plus H2O2) in cerebral cortical mixed neuronal cultures; type: cell-based, rat; details: for neuroprotection against uncompensated oxidative stress: 200 nM, 12 h TNFα 10 ng/mL and H2O2 (50, 100 or 200 μM); for UOS dose-dependent increase of apoptotic nuclei: 200 nM (FIG. 16B)
Text: (§1) Primary cultures of cortical neurons: Primary cultures of cortical and hippocampal neurons were harvested from 18-day-old embryos (E18) taken from timed-pregnant, two-month-old Sprague-Dawley (SD) rats (Charles River Lab., Wilmington, Mass.). Briefly, timed-pregnant SD rats were euthanized and embryos were collected in sterile conditions. Embryonic brains were dissected out by forceps on ice and placed in a petri dish containing ice-cold Hank's Balanced Salt Solution (HBSS) (GIBCO). Meninges were removed under a dissecting microscope and cortical tissues were chopped into small pieces with micro-spring scissors. These tissues were transferred to 15 ml tubes containing trypsin-EDTA (0.025% in HBSS) and DNase I. The tubes were incubated in 37° C. chamber for 15 mins and were agitated every 5 mins. After stopping the trypsinization with 5 ml 10% FBS, these tissues were triturated 15 times with a fire polished Pasteur pipet. Cell clumps were left to settle for 2 mins and the supernatant was transferred to a 15 ml Eppendorf tube. The supernatant was filtered through a 70 μm pore-sized filter (Corning cell strainer) and centrifuged for 5 mins at 1000 rpm. The cells were then resuspended in Neurobasal medium (GIBCO) containing 2% B27 (GIBCO) and 2% N2 (GIBCO) supplements, along with 0.5 mM glutamine, 50 U/ml penicillin/streptomycin.
Cells were counted using a Neubauer hemocytometer. 1×10^6 cells were seeded on poly-D-lysine-coated 12 well cell culture dish (CORNING) and cultured in incubator (37° C., 5% CO2). Culture medium was first replaced after 24 h, then half of the medium was replaced with fresh medium every three days. As a result, approximately, 90% purity of neurons was obtained as determined by class-III-β tubulin, GFAP and Hoechst 33258 staining. Cells were maintained in culture for about 2 weeks until they were exposed to uncompensated oxidative stress, OGD, or NMDA excitotoxicity.
After 90 mins of OGD exposure, cells were returned to the original medium (Neurobasal medium (GIBCO) containing 2% B27 (GIBCO) and 2% N2 (GIBCO) supplements, along with 0.5 mM glutamine, 50 U/ml penicillin/streptomycin) and placed in a normoxic chamber (37° C., 5% CO2) for 2 h. Then the medium was changed with medium containing either ELV-N32 or ELV-N34 [500 nM] and maintained in a normoxic chamber (37° C., 5% CO2) for 12 h, after which cells were sampled and assayed for cell viability using different methods as previously described (25-28). Cerebral cortical mixed neuronal cells or hippocampal cells in culture were exposed to either NMDA or uncompensated oxidative stress (UOS) for 12 h by addition of either NMDA (25 μM, 50 μM, or 100 μM) concentration or by the addition of TNFα (10 ng/mL) and H2O2 (50 μM, 100 μM, or 200 μM). Cell viability and neuroprotection in the presence of ELV-N32, ELV-N34, 32:6, or 34:6 were assayed after 12 h.
Hoechst staining and unbiased image analysis: Cells were washed with 1× Dulbecco's Phosphate Buffered Saline (DPBS) containing no calcium or magnesium (GIBCO) and fixed for 10 mins using ice-cold 4% paraformaldehyde (PFA) followed by 15 mins incubation in 100% methanol. Cells were washed with 1× Phosphate Buffered Saline (PBS) pH 7.4 (GIBCO) and incubated in PBS containing 20 μM Hoechst 33258 (Molecular Probes) for 20 mins. Cells were then washed 3 times with 1× PBS and stored in 1× PBS at 4° C. until they were imaged for microscopy.
One 4×4 tile mosaic was acquired from the center of each well using a Zeiss 510 Meta laser confocal microscope and LSM 510 Meta software. Images were imported into image analysis software ImageJ (National Institutes of Health, Bethesda, Md.) and batch processed using custom macros. An Otsu auto threshold was applied to each image of Hoechst-stained nuclei, and the area of each detected object was recorded. Objects with areas <10 μm^2 were excluded from analysis. To estimate percentage non-pyknotic nuclei, a size cutoff value was chosen above which objects were assumed to be non-pyknotic. […]

[2] = tested on: hippocampal mixed neuronal culture; assay: Oxygen glucose deprivation (OGD) in hippocampal mixed neuronal culture; type: cell-based, rat; details: 500 nM, DIV 12, 90 min OGD (FIG. 18G)
Text: as §1
Oxygen glucose deprivation (OGD), NMDA excitotoxicity or uncompensated oxidative stress (UOS) exposure: An in vitro oxygen glucose deprivation (OGD) model was established. Primary cortical neurons were cultured from SD rat embryos. On day in vitro (DIV) 12, cells were washed with phosphate-buffered saline and incubated in glucose-free Neurobasal medium (GIBCO) for 30 mins. The cells were then placed in a modular incubator chamber and incubated in an anaerobic chamber (95% N2, 5% CO2) at 37° C. for 90 mins for OGD.
After 90 mins of OGD exposure, cells were returned to the original medium (Neurobasal medium (GIBCO) containing 2% B27 (GIBCO) and 2% N2 (GIBCO) supplements, along with 0.5 mM glutamine, 50 U/ml penicillin/streptomycin) and placed in a normoxic chamber (37° C., 5% CO2) for 2 h. Then the medium was changed with medium containing either ELV-N32 or ELV-N34 [500 nM] and maintained in a normoxic chamber (37° C., 5% CO2) for 12 h, after which cells were sampled and assayed for cell viability using different methods as previously described (25-28). […]
One 4×4 tile mosaic was acquired from the center of each well using a Zeiss 510 Meta laser confocal microscope and LSM 510 Meta software. […] An Otsu auto threshold was applied to each image of Hoechst-stained nuclei, and the area of each detected object was recorded. […]

Row | Compound | neuroprotection against uncompensated oxidative stress [1] | neuroprotection after OGD (Hoechst positive nuclei counting) [2] | UOS dose-dependent increase of apoptotic nuclei [1] | neuroprotection against uncompensated oxidative stress ([1]; listed as ELV-N32 Na)
1 | CC/C=C\C[C@H](O)\C=C/C=C/C=C/[C@H](O)C/C=C\C/C=C\CCCCCCCCCCCCCCC(=O)[O-].[Na+] [ELV-N34-Na, sodium (16Z,19Z,22R,23E,25E,27Z,29S,31Z)-22,29-dihydroxytetratriaconta-16,19,23,25,27,31-hexaenoate] | neuroprotection elicited | neuroprotection elicited |  | 
2 | CC/C=C\C[C@H](O)\C=C/C=C/C=C/[C@H](O)C/C=C\C/C=C\CCCCCCCCCCCCC(=O)[O-].[Na+] [ELV-N32-Na, sodium (14Z,17Z,20R,21E,23E,25Z,27S,29Z)-20,27-dihydroxydotriaconta-14,17,21,23,25,29-hexaenoate] | evoked neuroprotection | neuroprotection elicited | counteracted | neuroprotection elicited
3 | CC/C=C\C/C=C\C/C=C\C/C=C\C/C=C\C/C=C\CCCCCCCCCCCCCCC(=O)O [34:6n3, (16Z,19Z,22Z,25Z,28Z,31Z)-tetratriaconta-16,19,22,25,28,31-hexaenoic acid] |  | showed neuroprotection |  | 
4 | CC/C=C\C[C@H](O)\C=C/C=C/C=C/[C@H](O)C/C=C\C/C=C\CCCCCCCCCCCCC(=O)OC [ELV-N32-Me, methyl (14Z,17Z,20R,21E,23E,25Z,27S,29Z)-20,27-dihydroxydotriaconta-14,17,21,23,25,29-hexaenoate] | evoked neuroprotection |  | counteracted | 
5 | CC/C=C\C/C=C\C/C=C\C/C=C\C/C=C\C/C=C\CCCCCCCCCCCCC(=O)O [32:6n3, (14Z,17Z,20Z,23Z,26Z,29Z)-dotriaconta-14,17,20,23,26,29-hexaenoic acid] |  | showed neuroprotection |  | 
